The subject of the experiment is E. coli. Briefly: Bacterial susceptibility testing, MIC by broth microdilution (CLSI). The settings on record: for MIC: Escherichia coli, read-out: E. coli MIC, broth microdilution, 35° C., 18-24 h; for E. coli MIC: broth microdilution, 35° C., 18-24 h. In general terms: Broth dilution looks for growth in wells or tubes with falling amounts of substance.

Converted amounts (≈) assume the structure as drawn.

Broadly, the MIC is the smallest concentration in the dilution series that meets the test's criterion for growth inhibition.

With `O=c1[nH]cnc(CC(CN[C@@H]2CCS(=O)(=O)C2)c2ccc(C#Cc3ccc(CN4CCOCC4)cc3)cc2)c1O` (single isomer, unassigned) [Compound 186], the MIC is below 1 µg/mL.

Take `O=c1[nH]cnc(CC(CN[C@H]2CCS(=O)(=O)C2)c2ccc(C#Cc3ccc(CN4CCOCC4)cc3)cc2)c1O` (single isomer, unassigned) [Compound 188]: the MIC was below 1 µg/mL.

As for `O=c1[nH]cnc(C[C@@H](CN2CC(F)C2)c2ccc(C#Cc3ccc(CN4CCOCC4)cc3)cc2)c1O` (single isomer, unassigned) [Compound 215], the MIC is below 1 µg/mL.

With `O=c1[nH]cnc(C[C@H](CN2CC(F)C2)c2ccc(C#Cc3ccc(CN4CCOCC4)cc3)cc2)c1O` (single isomer, unassigned) [Compound 216], the MIC is below 1 µg/mL.

Regarding `COC1CN(Cc2ccc(C#Cc3ccc([C@@H](CO)Cc4nc[nH]c(=O)c4O)cc3)cc2)C1` (single isomer, unassigned) [Compound 217], the MIC was below 1 µg/mL.

As for `COC1CN(Cc2ccc(C#Cc3ccc([C@H](Cc4nc[nH]c(=O)c4O)CN4CC(C#N)C4)cc3)cc2)C1` (single isomer, unassigned) [Compound 218], the MIC is below 1 µg/mL.

On to `COC1CN(Cc2ccc(C#Cc3ccc([C@@H](Cc4nc[nH]c(=O)c4O)CN(C)C4CC4)cc3)cc2)C1` (single isomer, unassigned) [Compound 219], for which the MIC is below 1 µg/mL.

In the case of `COC1CN(Cc2ccc(C#Cc3ccc([C@H](Cc4nc[nH]c(=O)c4O)CN(C)C4CC4)cc3)cc2)C1` (single isomer, unassigned) [Compound 220], the MIC was below 1 µg/mL.

On to `COC1CN(Cc2ccc(C#Cc3ccc([C@](C)(CNC4CC4)Cc4nc[nH]c(=O)c4O)cc3)cc2)C1` (single isomer, unassigned) [Compound 227], for which the MIC was in the range of 1 to 8 µg/mL (≈ 2.01 to 16 µM).

In the case of `COC1CN(Cc2ccc(C#Cc3ccc([C@@](C)(CNC4CC4)Cc4nc[nH]c(=O)c4O)cc3)cc2)C1` (single isomer, unassigned) [Compound 228], the MIC was below 1 µg/mL.

Turning to `O=c1[nH]cnc(C[C@@H](CN2CC(O)C2)c2ccc(C#Cc3ccc(CN4CCOCC4)cc3)cc2)c1O` (single isomer, unassigned) [Compound 229], the minimum inhibitory concentration (MIC) lay in the range of 1 to 8 µg/mL (≈ 2 to 16 µM).

As for `O=c1[nH]cnc(C[C@H](CN2CC(O)C2)c2ccc(C#Cc3ccc(CN4CCOCC4)cc3)cc2)c1O` (single isomer, unassigned) [Compound 230], the MIC is below 1 µg/mL.

As to `CC(=O)N1CC[C@@H](NCc2ccc(C#Cc3ccc(C(CO)Cc4nc[nH]c(=O)c4O)cc3)cc2)C1` (single isomer, unassigned) [Compound 233], the “E. coli MIC” value is “B (B: >1 μg/mL to ≤8.0 μg/mL)”.

`CC(=O)N1CC[C@@H](NCc2ccc(C#Cc3ccc(C(CO)Cc4nc[nH]c(=O)c4O)cc3)cc2)C1` (single isomer, unassigned) [Compound 234]: the “E. coli MIC” value is “A (A: ≤1 μg/mL)”.

Take `N#CC1CN(C[C@H](Cc2nc[nH]c(=O)c2O)c2ccc(C#Cc3ccc(CN4CC[C@H](C#N)C4)cc3)cc2)C1` (single isomer, unassigned) [Compound 235]: the MIC was below 1 µg/mL.

On to `N#CC1CN(C[C@@H](Cc2nc[nH]c(=O)c2O)c2ccc(C#Cc3ccc(CN4CC[C@H](C#N)C4)cc3)cc2)C1` (single isomer, unassigned) [Compound 236], for which the MIC was below 1 µg/mL.

As for `O=c1[nH]cnc(C[C@H](CNCCCF)c2ccc(C#Cc3ccc(CN4CCOCC4)cc3)cc2F)c1O` (single isomer, unassigned) [Compound 237], the MIC was below 1 µg/mL.

As for `COC1CN(Cc2ccc(C#Cc3ccc(C(CN[C@@H](C)CF)Cc4nc[nH]c(=O)c4O)c(F)c3)cc2)C1` (single isomer, unassigned) [Compound 238], the MIC is below 1 µg/mL.

`C[C@@H](CF)NCC(Cc1nc[nH]c(=O)c1O)c1ccc(C#Cc2ccc(CN3CC4COCC4C3)cc2)cc1F` (single isomer, unassigned) [Compound 239]: the MIC was below 1 µg/mL.

As for `O=c1[nH]cnc(C[C@H](CO)c2ccc(C#Cc3ccc(CN(CCO)[C@H]4CCOC4)cc3)cc2)c1O` (single isomer, unassigned) [Compound 243], the MIC was below 1 µg/mL.

As for `C[C@H](O)CNC[C@@H](Cc1nc[nH]c(=O)c1O)c1ccc(C#Cc2ccc(CN3CCOCC3)cc2)cc1` (single isomer, unassigned) [Compound 245], the MIC is below 1 µg/mL.

Take `C[C@H](O)CNC[C@H](Cc1nc[nH]c(=O)c1O)c1ccc(C#Cc2ccc(CN3CCOCC3)cc2)cc1` (single isomer, unassigned) [Compound 246]: the MIC was in the range of 1 to 8 µg/mL (≈ 1.99 to 15.9 µM).

For `C[C@@H](O)CNC[C@H](Cc1nc[nH]c(=O)c1O)c1ccc(C#Cc2ccc(CN3CCOCC3)cc2)cc1` (single isomer, unassigned) [Compound 247], the MIC lay in the range of 1 to 8 µg/mL (≈ 1.99 to 15.9 µM).

For the compound `C[C@@H](O)CNC[C@@H](Cc1nc[nH]c(=O)c1O)c1ccc(C#Cc2ccc(CN3CCOCC3)cc2)cc1` (single isomer, unassigned) [Compound 248], the MIC was below 1 µg/mL.

For `COC1CN(Cc2ccc(C#Cc3ccc([C@H](CNC4(C)CC4)Cc4nc[nH]c(=O)c4O)cc3)cc2)C1` (single isomer, unassigned) [Compound 250], the MIC was below 1 µg/mL.

With `COC1CN(Cc2ccc(C#Cc3ccc([C@@H](CNC4(C)CC4)Cc4nc[nH]c(=O)c4O)cc3)cc2)C1` (single isomer, unassigned) [Compound 251], the MIC was below 1 µg/mL.

Take `C[C@@H](CF)NCC(Cc1nc[nH]c(=O)c1O)c1ccc(C#Cc2ccc(C(O)CO)cc2)cc1` (single isomer, unassigned) [Compound 252]: the MIC is below 1 µg/mL.

With `CS(=O)(=O)N1CC[C@@H](NCc2ccc(C#Cc3ccc(C(CO)Cc4nc[nH]c(=O)c4O)cc3)cc2)C1` (single isomer, unassigned) [Compound 254], the MIC was below 1 µg/mL.

As for `O=c1[nH]cnc(C[C@H](CO)c2ccc(C#Cc3ccc(C4(O)CCNCC4)cc3)cc2)c1O` (single isomer, unassigned) [Compound 266], the MIC was 1 to 8 µg/mL (≈ 2.24 to 18 µM).

For the compound `O=c1[nH]cnc(C[C@H](CO)c2ccc(C#Cc3ccc(CN(CCO)[C@@H]4CCOC4)cc3)cc2)c1O` (single isomer, unassigned) [Compound 269], the MIC lay in the range of 1 to 8 µg/mL (≈ 2.04 to 16.3 µM).

Consider `O=c1[nH]cnc(C[C@H](CO)c2ccc(C#Cc3ccc(C(O)CO)cc3)cc2)c1O` (single isomer, unassigned) [Compound 270], for which the MIC lay in the range of 1 to 8 µg/mL (≈ 2.46 to 19.7 µM).

In the case of `O=c1[nH]cnc(C[C@H](CO)c2ccc(C#Cc3ccc(CN4CC5(CCO5)C4)cc3)cc2F)c1O` (single isomer, unassigned) [Compound 273], the MIC was below 1 µg/mL.

Consider `O=c1[nH]cnc(C[C@H](CN2CC(O)C2)c2ccc(C#Cc3ccc(CN4CCOCC4)cc3F)cc2)c1O` (single isomer, unassigned) [Compound 275], for which the MIC was below 1 µg/mL.

Take `O=c1[nH]cnc(C[C@H](CN2CC(O)C2)c2ccc(C#Cc3ccc(CN4CCOCC4)c(F)c3)cc2)c1O` (single isomer, unassigned) [Compound 276]: the MIC lay in the range of 1 to 8 µg/mL (≈ 1.93 to 15.4 µM).

Turning to `N#CC1CN(Cc2ccc(C#Cc3ccc([C@@H](CNCC(F)F)Cc4nc[nH]c(=O)c4O)c(F)c3)cc2)C1` (single isomer, unassigned) [Compound 279], the MIC was below 1 µg/mL.

Consider `C[C@H](CF)NCC(Cc1nc[nH]c(=O)c1O)c1ccc(C#Cc2ccc(CN3CCOCC3)cc2)cc1F` (single isomer, unassigned) [Compound 280], for which the MIC was below 1 µg/mL.

Regarding `N#C[C@@H]1CCN(Cc2ccc(C#Cc3ccc([C@@H](CNCC(F)F)Cc4nc[nH]c(=O)c4O)c(F)c3)cc2)C1` (single isomer, unassigned) [Compound 281], the MIC is below 1 µg/mL.

Consider `COC1CN(Cc2ccc(C#Cc3ccc([C@@H](CNCC(F)F)Cc4nc[nH]c(=O)c4O)c(F)c3)cc2)C1` (single isomer, unassigned) [Compound 282], for which the MIC was below 1 µg/mL.

Consider `O=c1[nH]cnc(C[C@H](CNCC(F)F)c2ccc(C#Cc3ccc(CN4CCOCC4)cc3)cc2F)c1O` (single isomer, unassigned) [Compound 283], for which the MIC was below 1 µg/mL.

For the compound `COC[C@@H](Cc1nc[nH]c(=O)c1O)c1ccc(C#Cc2ccc(CN[C@H]3CCOC3)cc2)cc1` (single isomer, unassigned) [Compound 285], the MIC was below 1 µg/mL.

As to `COC[C@@H](Cc1nc[nH]c(=O)c1O)c1ccc(C#Cc2ccc(CN[C@H]3CCNC3)cc2)cc1` (single isomer, unassigned) [Compound 287], the MIC was in the range of 1 to 8 µg/mL (≈ 2.18 to 17.4 µM).

Turning to `COC[C@@H](Cc1nc[nH]c(=O)c1O)c1ccc(C#Cc2ccc(CN[C@@H]3CCNC3)cc2)cc1` (single isomer, unassigned) [Compound 288], the MIC lay in the range of 1 to 8 µg/mL (≈ 2.18 to 17.4 µM).

With `CS(=O)(=O)N[C@@H](Cc1nc[nH]c(=O)c1O)c1ccc(C#Cc2ccc(C3(O)CCNCC3)cc2)cc1` (single isomer, unassigned) [Compound 296], the MIC is 8 to 32 µg/mL (≈ 15.7 to 62.9 µM).

`CS(=O)(=O)N[C@@H](Cc1nc[nH]c(=O)c1O)c1ccc(C#Cc2ccc(CN3CCNC[C@H]3CO)cc2)cc1` (single isomer, unassigned) [Compound 297]: the MIC fell in the range of 8 to 32 µg/mL (≈ 14.9 to 59.5 µM).

Turning to `COC1CN(Cc2ccc(C#Cc3ccc([C@@H](Cc4nc[nH]c(=O)c4O)NS(C)(=O)=O)cc3)cc2)C1` (single isomer, unassigned) [Compound 299], the MIC is below 1 µg/mL.

Consider `CN(C[C@@H](Cc1nc[nH]c(=O)c1O)c1ccc(C#Cc2ccc(CN3CCOCC3)cc2)cc1)C1CC1` (single isomer, unassigned) [Compound 302], for which the minimal inhibitory concentration (MIC) was below 1 µg/mL.

As for `CC(=O)NC[C@@H](Cc1nc[nH]c(=O)c1O)c1ccc(C#Cc2ccc(CN3CCOCC3)cc2)cc1` (single isomer, unassigned) [Compound 303], the MIC was below 1 µg/mL.

On to `CS(=O)(=O)NC[C@@H](Cc1nc[nH]c(=O)c1O)c1ccc(C#Cc2ccc(CN3CCOCC3)cc2)cc1` (single isomer, unassigned) [Compound 304], for which the MIC is below 1 µg/mL.

On to `CC(C)(O)C(Cc1nc[nH]c(=O)c1O)c1ccc(C#Cc2ccc(CN3CCOCC3)cc2)cc1` (centres unmarked) [Compound 1], for which the MIC is 1 to 8 µg/mL (≈ 2.11 to 16.9 µM).

Consider `O=c1[nH]cnc(CC(CO)c2ccc(C#Cc3ccc(CN4CCOCC4)cc3)cc2)c1O` (centres unmarked) [Compound 2], for which the MIC is below 1 µg/mL.

Source of the values: patent US11407740B2 (priority 2018, dated 2022).
